Measured values published in patent US20260176265A1 (Cancer Research Technology Limited, priority 2022, published 2026).

What was measured:
[1] = molecular target: T1, Phospho-EGFR (Tyr1068) in H1975 cells (Homo sapiens, UniProt P00533, L858R/T790M); experiment: HTRF pEGFR/total EGFR assay in H1975 cells; format: cell-based; details: compound 3 hours, ratio pEGFR/total EGFR
T1 construct: host or cells: H1975
Method: H1975 cells (ATCC CRL-5908) were plated at 20,000 cells per well in 96 well plates and placed at 37° C. 5% CO2. Once adhered (after 24h) cells were treated with compounds dissolved in DMSO at a final concentration of 0.1% DMSO in media. Compounds were diluted in media then added to cells for 3 hours in duplicate. Compound and media were removed from the cells, then 50ul of HTRF lysis buffer is added (lysis buffer was diluted from 4× stock to 1× in DI water, with 1% blocking agent also added). Cells were lysed on a plate shaker (2000 rpm) for 30 minutes at room temperature. pEGFR expression was monitored using the Cisbio Phospho-EGFR (Tyri068) cellular kit (64EG1 PEH). Total EGFR expression was monitored using the Cisbio Total EGFR cellular kit (64NG1 PEH) as per manufacturer's instructions. Fluorescence emission was read at two different wavelengths (665 nm and 620 nm) on a PheraStar. Results were calculated as ratio of pEGFR/total EGFR and then percentage of 0 uM control.

[2] = molecular target: CtermHisTag-mEGFR Wild type (Homo sapiens, UniProt P00533); experiment: TR-FRET probe displacement assay, EGFR wild type; format: binding; details: EGFR wild type 1.25 nM, probe 100 nM, 30 mins room temperature
Method: (§1) Compounds (dissolved to 100 mM in DMSO) were dispensed into black low volume 384 well assay plates (Corning) over a final concentration range of 100000, 30000, 10000, 3000, 1000, 300, 100, 30, 10, and 3 nM using an Echo 550 (Labcyte). Positive control compound and DMSO as a negative control were dispensed into the first and last well, respectively. […]. Plates were read using a PheraStar FS (BMG Labtech) at Ex337 nm Ex490/520 nm. The data were analysed using Graphpad Prism/Dotmatics Studies Software. Assays conducted in technical replicate and repeated as a biological duplicate.

[3] = molecular target: T2, Phospho-EGFR (Tyr1068) in A431 cells (Homo sapiens, UniProt P00533); experiment: HTRF pEGFR/total EGFR assay in A431 cells (EGF stimulated); format: cell-based; details: compound 2.5 hours then 100 ng/ml EGF 30 mins, ratio pEGFR/total EGFR
T2 construct: endogenous in cells; host or cells: A431
Method: Cells were plated at 20,000 cells per well in 96 well plates and placed at 37° C. 5% CO2. Once adhered (after 24h) cells were treated with compounds dissolved in DMSO at a final concentration of 0.1% DMSO in media. Compounds were diluted in media then added to cells for 2.5 hours in duplicate, 100 ng/ml EGF (ThermoFisher, PHG0311 was is added to all compound treated cells as well as a control for 30 mins. Compound and media were removed from the cells, then 50ul of HTRF lysis bufferwas added (lysis bufferwas diluted from 4× stock to 1× in DI water, with 1% blocking agent also added). Cells were lysed on a plate shaker (2000 rpm) for 30 minutes at room temperature. pEGFR expression was monitored using the Cisbio Phospho-EGFR (Tyr1068) cellular kit (64EG1PEH). Total EGFR expression was monitored using the Cisbio Total EGFR cellular kit (64NG1PEH) as per manufacturer's instructions. Fluorescence emission was read at two different wavelengths (665 nm and 620 nm) on a PheraStar. Results were calculated as ratio of pEGFR/total EGFR and then percentage of OuM control.

[4] = molecular target: CtermHisTag-mEGFR Triple Mutant - C797S, L858R, T790M (Homo sapiens, UniProt P00533, C797S/L858R/T790M); experiment: TR-FRET probe displacement assay, EGFR triple mutant; format: binding; details: T790M 1.25 nM, probe 100 nM, 30 mins room temperature
Method: as §1

[5] = molecular target: T3, Phospho-EGFR (Tyr1068) in H1975 C797S cells (Homo sapiens, UniProt P00533, C797S/L858R/T790M); experiment: HTRF pEGFR/total EGFR assay in H1975 C797S cells; format: cell-based; details: H1975 C797S cells (CRISPR), compound 3 hours, ratio pEGFR/total EGFR
T3 construct: endogenous in cells; host or cells: H1975 C797S (CRISPR-edited in house from ATCC CRL-5908)
Method: H1975 C797S cells (ATCC CRL-5908) were genetically engineered by CRISPR editing of EGFR C797S in house and validated by NGS. Cells were plated at 20,000 cells per well in 96 well plates and placed at 37° C. 5% CO2. Once adhered (after 24h) cells were treated with compounds dissolved in DMSO at a final concentration of 0.1% DMSO in media. Compounds were diluted in media then added to cells for 3 hours in duplicate. Compound and media were removed from the cells, then 50 ul of HTRF lysis buffer was added (lysis buffer was diluted from 4× stock to 1× in DI water, with 1% blocking agent also added). Cells were lysed on a plate shaker (2000 rpm) for 30 minutes at room temperature. pEGFR expression was monitored using the Cisbio Phospho-EGFR (Tyr1068) cellular kit (64EG1PEH). Total EGFR expression was monitored using the Cisbio Total EGFR cellular kit (64NG1PEH) as per manufacturer's instructions. Fluorescence emission was read at two different wavelengths (665 nm and 620 nm) on a PheraStar. Results were calculated as ratio of pEGFR/total EGFR and then percentage of 0 uM control.

T3 sequence (P00533 25-1210 T790M/C797S/L858R): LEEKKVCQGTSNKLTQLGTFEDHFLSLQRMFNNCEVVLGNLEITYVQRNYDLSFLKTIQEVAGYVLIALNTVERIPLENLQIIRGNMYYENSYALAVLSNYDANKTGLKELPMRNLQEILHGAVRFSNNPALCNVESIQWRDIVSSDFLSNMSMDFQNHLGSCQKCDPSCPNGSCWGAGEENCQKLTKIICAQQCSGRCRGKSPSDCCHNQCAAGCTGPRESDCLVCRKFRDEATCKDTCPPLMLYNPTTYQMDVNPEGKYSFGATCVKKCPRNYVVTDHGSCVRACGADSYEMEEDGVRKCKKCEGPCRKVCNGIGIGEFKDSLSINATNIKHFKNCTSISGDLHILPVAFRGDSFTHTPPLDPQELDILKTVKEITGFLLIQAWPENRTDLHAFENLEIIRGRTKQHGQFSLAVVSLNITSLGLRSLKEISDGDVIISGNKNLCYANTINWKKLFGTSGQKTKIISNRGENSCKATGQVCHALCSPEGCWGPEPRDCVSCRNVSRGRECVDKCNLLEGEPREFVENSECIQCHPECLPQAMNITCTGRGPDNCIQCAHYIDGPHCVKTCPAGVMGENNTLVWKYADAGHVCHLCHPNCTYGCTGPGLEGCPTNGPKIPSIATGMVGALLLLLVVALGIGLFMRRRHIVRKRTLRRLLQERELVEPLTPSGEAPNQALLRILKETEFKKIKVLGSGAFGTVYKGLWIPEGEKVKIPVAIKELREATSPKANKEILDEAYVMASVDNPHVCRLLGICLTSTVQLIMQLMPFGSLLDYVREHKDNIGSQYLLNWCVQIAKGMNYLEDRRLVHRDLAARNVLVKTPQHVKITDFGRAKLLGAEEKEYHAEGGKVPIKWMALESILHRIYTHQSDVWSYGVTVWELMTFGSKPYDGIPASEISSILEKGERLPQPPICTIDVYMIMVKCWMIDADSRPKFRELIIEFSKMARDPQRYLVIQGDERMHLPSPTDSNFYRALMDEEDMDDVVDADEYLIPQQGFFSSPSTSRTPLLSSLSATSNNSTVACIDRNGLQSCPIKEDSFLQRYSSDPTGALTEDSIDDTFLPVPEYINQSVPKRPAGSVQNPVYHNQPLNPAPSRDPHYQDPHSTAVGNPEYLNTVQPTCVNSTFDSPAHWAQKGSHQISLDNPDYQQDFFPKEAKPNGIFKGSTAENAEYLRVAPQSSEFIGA
Chain of CtermHisTag-mEGFR Triple Mutant - C797S, L858R, T790M (P00533 25-1210 T790M/C797S/L858R): as above
T1 sequence (P00533 25-1210 T790M/L858R): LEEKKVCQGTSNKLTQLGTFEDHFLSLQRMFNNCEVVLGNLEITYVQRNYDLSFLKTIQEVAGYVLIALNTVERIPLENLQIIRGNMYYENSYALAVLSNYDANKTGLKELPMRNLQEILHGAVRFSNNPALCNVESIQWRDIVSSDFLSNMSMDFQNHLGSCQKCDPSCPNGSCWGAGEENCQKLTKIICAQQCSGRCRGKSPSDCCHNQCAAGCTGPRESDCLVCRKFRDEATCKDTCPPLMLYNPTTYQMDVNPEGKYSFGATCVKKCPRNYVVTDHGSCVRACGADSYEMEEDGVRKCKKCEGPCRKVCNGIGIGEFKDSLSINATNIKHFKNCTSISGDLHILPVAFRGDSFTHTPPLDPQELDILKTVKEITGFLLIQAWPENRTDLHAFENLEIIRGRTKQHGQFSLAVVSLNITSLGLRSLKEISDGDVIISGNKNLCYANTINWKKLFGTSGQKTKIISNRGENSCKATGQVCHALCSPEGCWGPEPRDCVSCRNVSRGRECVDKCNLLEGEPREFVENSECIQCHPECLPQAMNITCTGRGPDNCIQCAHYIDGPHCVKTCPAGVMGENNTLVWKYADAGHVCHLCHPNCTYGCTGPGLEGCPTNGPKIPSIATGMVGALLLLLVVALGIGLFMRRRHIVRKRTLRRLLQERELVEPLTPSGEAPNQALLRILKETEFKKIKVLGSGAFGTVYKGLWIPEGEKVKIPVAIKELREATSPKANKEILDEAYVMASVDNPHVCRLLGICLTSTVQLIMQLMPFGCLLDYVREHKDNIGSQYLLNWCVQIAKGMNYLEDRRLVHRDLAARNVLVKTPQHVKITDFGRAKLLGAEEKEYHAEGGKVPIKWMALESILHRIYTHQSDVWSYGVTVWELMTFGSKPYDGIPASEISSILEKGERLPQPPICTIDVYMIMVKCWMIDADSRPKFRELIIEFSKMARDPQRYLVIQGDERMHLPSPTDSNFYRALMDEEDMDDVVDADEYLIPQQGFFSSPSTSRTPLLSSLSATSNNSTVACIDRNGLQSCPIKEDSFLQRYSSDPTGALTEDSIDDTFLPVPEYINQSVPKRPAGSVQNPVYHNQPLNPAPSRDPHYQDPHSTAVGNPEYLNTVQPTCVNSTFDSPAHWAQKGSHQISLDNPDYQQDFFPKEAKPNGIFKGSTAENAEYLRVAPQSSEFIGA
T2 sequence (P00533 25-1210): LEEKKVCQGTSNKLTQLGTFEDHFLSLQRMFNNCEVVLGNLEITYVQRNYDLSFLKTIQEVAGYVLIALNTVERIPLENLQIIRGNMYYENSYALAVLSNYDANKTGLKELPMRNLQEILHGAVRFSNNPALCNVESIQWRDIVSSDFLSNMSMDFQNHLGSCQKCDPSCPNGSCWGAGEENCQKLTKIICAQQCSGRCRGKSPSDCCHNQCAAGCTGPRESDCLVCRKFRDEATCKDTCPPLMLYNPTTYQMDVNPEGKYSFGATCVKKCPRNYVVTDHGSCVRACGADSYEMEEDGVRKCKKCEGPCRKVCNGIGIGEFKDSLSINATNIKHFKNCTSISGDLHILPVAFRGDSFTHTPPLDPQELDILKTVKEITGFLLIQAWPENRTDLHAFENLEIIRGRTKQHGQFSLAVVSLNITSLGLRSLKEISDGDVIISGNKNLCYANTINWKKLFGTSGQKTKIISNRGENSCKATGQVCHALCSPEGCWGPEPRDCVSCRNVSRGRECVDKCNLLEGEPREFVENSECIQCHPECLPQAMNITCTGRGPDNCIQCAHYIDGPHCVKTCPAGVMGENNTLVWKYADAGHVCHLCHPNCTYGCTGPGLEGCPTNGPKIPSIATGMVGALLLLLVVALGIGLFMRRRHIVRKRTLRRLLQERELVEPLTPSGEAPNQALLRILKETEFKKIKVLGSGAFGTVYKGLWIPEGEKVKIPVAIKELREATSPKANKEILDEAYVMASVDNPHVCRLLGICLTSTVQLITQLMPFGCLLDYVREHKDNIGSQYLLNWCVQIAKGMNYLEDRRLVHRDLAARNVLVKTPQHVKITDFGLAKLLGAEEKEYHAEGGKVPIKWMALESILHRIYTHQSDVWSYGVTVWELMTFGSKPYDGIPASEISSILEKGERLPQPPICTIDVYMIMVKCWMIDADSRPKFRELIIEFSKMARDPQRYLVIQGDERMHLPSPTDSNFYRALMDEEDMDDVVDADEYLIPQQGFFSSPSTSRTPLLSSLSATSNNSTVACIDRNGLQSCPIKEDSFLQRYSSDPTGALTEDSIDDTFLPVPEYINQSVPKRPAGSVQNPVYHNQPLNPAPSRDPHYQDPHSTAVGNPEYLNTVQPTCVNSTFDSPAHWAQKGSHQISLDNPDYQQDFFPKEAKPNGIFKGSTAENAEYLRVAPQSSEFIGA

Row | SMILES | IC50 [1] [µM] | IC50 [2] [µM] | IC50 [3] [µM] | IC50 [4] [µM] | IC50 [5] [µM]
1 | C#Cc1cc(N2C(=O)NC[C@@H]2C(C)C)nc2nc(Nc3ccc(N4CCN(C)CC4)cc3)ncc12 [Example 99, (5S)-1-(5-Ethynyl-2-{[4-(4-methylpiperazin-1-yl)phenyl]amino}pyrido[2,3-d]pyrimidin-7-yl)-5-isopropylmidazolidin-2-one] | < 0.5 | < 1 | > 3 | < 0.02 | < 0.5
2 | C#Cc1cc(NC(=O)NCC2CCCC2)nc2nc(Nc3ccc(N4CCN(C)CC4)cc3)ncc12 [Example 40, 3-(cyclopentylmethyl)-1-(5-ethynyl-2-{[4-(4-methylpiperazin-1-yl)phenyl]amino}pyrido[2,3-d]pyrimidin-7-yl)urea] | < 0.5 | < 1 | > 3 | < 0.02 | < 0.5
3 | C#Cc1cc(-n2cc(C)cn2)nc2nc(Nc3ccc(N(C)CCN(C)C)cc3)ncc12 [Example 34, N^1-[2-(dimethylamino)ethyl]-N^4-[5-ethynyl-7-(4-methylpyrazol-1-yl)pyrido[2,3-d]pyrimidin-2-yl]-N^1-methylbenzene-1,4-diamine] | > 3 | 1 to 10 | > 3 | < 0.02 | 1 to 3
4 | C#Cc1cc(NC(=O)NC2CCOC2)nc2nc(Nc3ccc(N4CCN(C)CC4)cc3)ncc12 (stereo not shown) [Example 42, 1-(5-ethynyl-2-{[4-(4-methylpiperazin-1-yl)phenyl]amino}pyrido[2,3-d]pyrimidin-7-yl)-3-(oxolan-3-yl)urea] | < 0.5 | < 1 | > 3 | < 0.02 | < 0.5
5 | C#Cc1cc(N2C(=O)N(C)CC23CCCC3)nc2nc(Nc3ccc(N4CCN(C5COC5)CC4)cc3)ncc12 [Example 104, 1-[5-Ethynyl-2-([4-[4-(oxetan-3-yl)piperazin-1-yl]phenyl]amino)pyrido[2,3-d]pyrimidin-7-yl]-3-methyl-1,3-diazaspiro[4.4]nonan-2-one] | 1 to 3 | < 1 | > 3 | 0.02 to 0.1 | 1 to 3
6 | C#Cc1cc(NC(=O)N[C@H]2CCN(C(C)=O)C2)nc2nc(Nc3ccc(N4CCN(C)CC4)cc3)ncc12 [Example 53, 3-[(3S)-1-acetylpyrrolidin-3-yl]-1-(5-ethynyl-2-{[4-(4-methylpiperazin-1-yl)phenyl]amino}pyrido[2,3-d]pyrimidin-7-yl)urea] | 1 to 3 | < 1 | > 3 | < 0.02 | > 3
7 | C#Cc1cc(OCCCc2ccccc2)nc2nc(Nc3ccc(N4CCN(C)CC4)cc3)ncc12 [Example 22, 5-ethynyl-N-[4-(4-methylpiperazin-1-yl)phenyl]-7-(3-phenylpropoxy)pyrido[2,3-d]pyrimidin-2-amine] | > 3 | > 10 | > 3 | 0.1 to 1 | > 3
8 | C#Cc1cc(N2C(=O)NCC23CCCC3)nc2nc(Nc3ccc(S(=O)(=O)N(C)C)cc3)ncc12 [Example 97, 4-[(5-Ethynyl-7-{2-oxo-1,3-diazaspiro[4.4]nonan-1-yl}pyrido[2,3-d]pyrimidin-2-yl)amino]-N,N-dimethylbenzenesulfonamide] | > 3 | > 10 | > 3 | 0.02 to 0.1 | > 3
9 | C#Cc1cc(Oc2ccccc2)nc2nc(Nc3ccc(N4CCN(C)CC4)cc3)ncc12 [Example 12, 5-ethynyl-N-[4-(4-methylpiperazin-1-yl)phenyl]-7-phenoxypyrido[2,3-d]pyrimidin-2-amine] | > 3 | > 10 | > 3 | 0.1 to 1 | > 3
10 | C#Cc1cc(OCCc2ccccc2)nc2nc(Nc3ccc(N4CCN(C)CC4)cc3)ncc12 [Example 21, 5-ethynyl-N-[4-(4-methylpiperazin-1-yl)phenyl]-7-(2-phenylethoxy)pyrido[2,3-d]pyrimidin-2-amine] | > 3 | > 10 | > 3 | 0.1 to 1 | > 3
11 | C#Cc1cc(N(C)C)nc2nc(Nc3ccc(N(C)CCN(C)C)cc3)ncc12 [Example 24, N^2-(4-{[2-(dimethylamino)ethyl](methyl)amino}phenyl)-5-ethynyl-N^7,N^7-dimethylpyrido[2,3-d]pyrimidine-2,7-diamine] | > 3 | > 10 | > 3 | 1 to 50 | > 3
12 | C#Cc1cc(NC(=O)Nc2ncc[nH]2)nc2nc(Nc3ccc(N4CCN(C)CC4)cc3)ncc12 [Example 59, 1-(5-ethynyl-2-{[4-(4-methylpiperazin-1-yl)phenyl]amino}pyrido[2,3-d]pyrimidin-7-yl)-3-(1H-imidazol-2-yl)urea] | 1 to 3 | < 1 | > 3 | < 0.02 | 1 to 3
13 | C#Cc1cc(NC(=O)NC2CCCC2)nc2nc(Nc3cccc(CN4CC(CS(C)(=O)=O)C4)c3)ncc12 [Example 85] | > 3 | < 1 | 1 to 3 | 0.02 to 0.1 | < 0.5
14 | C#Cc1cc(N2C(=O)OCC2CC2CCCC2)nc2nc(Nc3ccc(N4CCN(C)CC4)cc3)ncc12 (stereo not shown) [Example 112, 4-(Cyclopentylmethyl)-3-(5-ethynyl-2-{[4-(4-methylpiperazin-1-yl)phenyl]amino}pyrido[2,3-d]pyrimidin-7-yl)-1,3-oxazolidin-2-one] | 0.5 to 1 | < 1 | > 3 | < 0.02 | 0.5 to 1
15 | C#Cc1cc(N2C(=O)OCC2C(C)C)nc2nc(Nc3ccc(N4CCN(C)CC4)cc3)ncc12 (stereo not shown) [Example 68, 3-(5-ethynyl-2-{[4-(4-methylpiperazin-1-yl)phenyl]amino}pyrido[2,3-d]pyrimidin-7-yl)-4-isopropyl-1.3-oxazolidin-2-one] | < 0.5 | 1 to 10 | > 3 | < 0.02 | 1 to 3
16 | C#Cc1cc(N2C(=O)N(C)CC23CCCC3)nc2nc(Nc3ccc(OCCN(C)C)cc3)ncc12 [Example 107] | 1 to 3 | 1 to 10 | > 3 | 0.1 to 1 | 1 to 3
17 | C#Cc1cc(OC)nc2nc(Nc3cccc(CN(C)C)c3)ncc12 [Example 9, N-{3-[(dimethylamino)methyl]phenyl}-5-ethynyl-7-methoxypyrido[2,3-d] pyrimidin-2-amine] | > 3 | > 10 | > 3 | 0.1 to 1 | > 3
